Measured values: patent US20110028686A1, “Protein binding miniature proteins” (Yale University, priority 2000, published 2011)
Like-named read-outs stand apart in the source and are kept apart here. Square brackets hold non-standard residues; d marks the D form. Peptide text beside a SMILES is read from it. * marks the point of attachment. Fluorescein(5-NHCOCH2) = O=C(C*)Nc1ccc2c(c1)C(=O)OC21c2ccc(O)cc2Oc2cc(O)ccc21; pS = N[C@@H](COP(=O)(O)O)C(=O)O

Assays:
[1] = biological target: T1, HisKIX (His-tagged CBP KIX domain) (Mus musculus, UniProt P45481); assay: Equilibrium fluorescence polarization, HisKIX binding; conditions: for Kd: 25° C.
T1 construct: The CBP KIX-coding region (residues 586 to 672) of pGEX-KT KIX 10-672; made in house; host or cells: E. coli BL21(DE3) pArg
T1 sequence (P45481 586-672): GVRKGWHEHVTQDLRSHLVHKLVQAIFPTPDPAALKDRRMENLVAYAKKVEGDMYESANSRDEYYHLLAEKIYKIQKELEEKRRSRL

[2] = test system: hsCRE24 (CRE half-site DNA, ATGAC); assay: Electrophoretic mobility shift assay, binding to hsCRE24 DNA; conditions: for DNA binding: EMSA
Experimental: Miniature protein-binding to DNA was measured using an electrophoretic mobility shift assay performed in a Model SE600 Dual-Controller Vertical Slab Unit (Hoefer) using 14×16 cm gel plates. Temperature was controlled using a constant temperature bath. Reactions were performed in a binding buffer composed of 137 mM NaCl, 2.7 mM KCl, 4.3 mM Na2HPO4, 1.4 mM NaH2PO4 (pH 7.4), 1 mM EDTA, 0.1% NP-40, 0.4 mg/ml BSA (non-acetylated) and 5% glycerol. For experiments involving the bZIP peptide C/EBP152, the binding buffer was supplemented with 2 mM dithiothreitol. Serial peptide dilutions were performed as 1:1 dilutions with binding buffer. In general, 0.002 ml of gamma ^32P-labeled, double-stranded DNA (CRE24, hsCRE24, C/EBP24 or hsCEBP24; final concentration ≦50 pM in binding buffer; final concentration ≦5 pM for peptides with Kapp <500 pM) in binding buffer were added to 0.008 ml of a serial peptide dilution on ice. Peptide-DNA mixtures were incubated for thirty minutes on ice and then applied to a pre-equilibrated, native polyacrylamide gel (8% acrylamide:bisacrylamide) prepared in 10 mM Tris buffer (pH. 8.1). Gels were allowed to run 0.75 to 1.5 hours at 500 V and were dried on a Model SE1160 Drygel Sr. gel dryer (Hoefer). The gels were analyzed using a Storm 840 Phosphorimager (Molecular Dynamics). Amounts of free and bound DNA were quantified and analyzed using the program KaleidaGraph 3.0 (Synergy Software). Dissociation constants were determined by fitting the data to the Langmuir equation=c[(1+(Kapp/peptideT^n))^−1] where n=1 for PPEBP^SR and EBP^SR and n=2 for C/EBP152. In these equations, theta=cpm in protein-DNA complex/(cpm in protein-DNA complex+cpm free DNA); peptideT=the total peptide concentration and c is an adjustable parameter representing the maximum value of theta (c ≦1; for many peptides c was defined as 1). Values reported represent the average of at least three independent trials ±the standard error. Error bars on the plots represent the standard error for each data point.

[3] = fluorescein-labeled unphosphorylated peptide, read-out: Kd HisKIX, unphosphorylated peptide (U)
[4] = label shows phosphorylated (P) or unphosphorylated (U) form, read-out: Kd HisKIX
[5] = 4° C., read-out: affinity (Kd) for hsCRE
[6] = physiological ionic strength, read-out: equilibrium dissociation constant (Kd) of binding to hsCRE

Molecule: CC[C@H](C)[C@H](NC(=O)[C@H](Cc1ccc(O)cc1)NC(=O)[C@H](Cc1ccccc1)NC(=O)[C@H](Cc1ccccc1)NC(=O)[C@H](COP(=O)(O)O)NC(=O)[C@H](CC(C)C)NC(=O)[C@H](CCCNC(=N)N)NC(=O)[C@H](CCCNC(=N)N)NC(=O)[C@@H](NC(=O)[C@@H]1CCCN1C(=O)[C@H](C)NC(=O)[C@H](CC(=O)O)NC(=O)[C@H](CC(=O)O)NC(=O)CNC(=O)[C@H](Cc1c[nH]cn1)NC(=O)[C@H](Cc1ccc(O)cc1)NC(=O)[C@@H](NC(=O)[C@@H]1CCCN1C(=O)[C@H](Cc1c[nH]c2ccccc12)NC(=O)[C@H](CO)NC(=O)[C@H](CC(C)C)NC(=O)CN)[C@@H](C)O)C(C)C)C(=O)N[C@@H](CC(C)C)C(=O)N[C@@H](CC(C)C)C(=O)N[C@@H](CC(=O)O)C(=O)N[C@@H](CC(C)C)C(=O)N[C@@H](Cc1ccc(O)cc1)C(=O)N[C@@H](CC(C)C)C(=O)N[C@@H](CC(=O)O)C(=O)N[C@@H](C)C(=O)N1CCC[C@H]1C(=O)NCC(=O)N[C@H](C(=O)N[C@@H](CSCC(=O)Nc1ccc2c(c1)C(=O)OC21c2ccc(O)cc2Oc2cc(O)ccc21)C(N)=O)C(C)C [PPKID5]
- Kd ([1]; fluorescein-labeled phosphopeptide, read-out: Kd HisKIX, phosphorylated peptide (P)): 534 ± 31 nM
- Kd [1, 3]: 6600 ± 2000 nM

Molecule: CC[C@H](C)[C@H](NC(=O)CN)C(=O)N[C@@H](CO)C(=O)N[C@@H](Cc1c[nH]c2ccccc12)C(=O)N1CCC[C@H]1C(=O)N[C@H](C(=O)N[C@@H](Cc1ccccc1)C(=O)N[C@@H](CCC(=O)O)C(=O)NCC(=O)N[C@@H](CC(=O)O)C(=O)N[C@@H](CC(=O)O)C(=O)N[C@@H](C)C(=O)N1CCC[C@H]1C(=O)N[C@H](C(=O)N[C@@H](CCCNC(=N)N)C(=O)N[C@@H](CCCNC(=N)N)C(=O)N[C@@H](CC(C)C)C(=O)N[C@@H](CCC(=O)O)C(=O)N[C@@H](Cc1ccccc1)C(=O)N[C@@H](Cc1ccccc1)C(=O)N[C@@H](Cc1ccc(O)cc1)C(=O)N[C@H](C(=O)N[C@@H](CC(C)C)C(=O)N[C@@H](CC(C)C)C(=O)N[C@@H](CC(=O)O)C(=O)N[C@@H](CC(C)C)C(=O)N[C@@H](Cc1ccc(O)cc1)C(=O)N[C@@H](CC(C)C)C(=O)N[C@@H](CC(=O)O)C(=O)N[C@@H](C)C(=O)N1CCC[C@H]1C(=O)NCC(=O)N[C@H](C(=O)N[C@@H](CSCC(=O)Nc1ccc2c(c1)C(=O)OC21c2ccc(O)cc2Oc2cc(O)ccc21)C(N)=O)C(C)C)[C@@H](C)CC)C(C)C)[C@@H](C)O [PPKID6 S18E] (H-GISWPTFEGDDAPVRRLEFFYILLDLYLDAPGVC(Fluorescein(5-NHCOCH2))-NH2)
- Kd [1, 3]: 10900 ± 2000 nM

Molecule: CC[C@H](C)[C@H](NC(=O)[C@H](Cc1ccc(O)cc1)NC(=O)[C@H](Cc1ccccc1)NC(=O)[C@H](Cc1ccccc1)NC(=O)[C@H](CO)NC(=O)[C@H](CC(C)C)NC(=O)[C@H](CCCNC(=N)N)NC(=O)[C@H](CCCNC(=N)N)NC(=O)[C@@H](NC(=O)[C@@H]1CCCN1C(=O)[C@H](C)NC(=O)[C@H](CC(=O)O)NC(=O)[C@H](CC(=O)O)NC(=O)CNC(=O)[C@H](Cc1c[nH]c2ccccc12)NC(=O)[C@H](CCC(=O)O)NC(=O)[C@@H](NC(=O)[C@H](Cc1ccc(O)cc1)NC(=O)[C@@H]1CCCN1C(=O)[C@H](CO)NC(=O)[C@H](CC(C)C)NC(=O)CN)[C@@H](C)O)C(C)C)C(=O)N[C@@H](CC(C)C)C(=O)N[C@@H](CC(C)C)C(=O)N[C@@H](CC(=O)O)C(=O)N[C@@H](CC(C)C)C(=O)N[C@@H](Cc1ccc(O)cc1)C(=O)N[C@@H](CC(C)C)C(=O)N[C@@H](CC(=O)O)C(=O)N[C@@H](C)C(=O)N1CCC[C@H]1C(=O)NCC(=O)N[C@H](C(=O)N[C@@H](CSCC(=O)Nc1ccc2c(c1)C(=O)OC21c2ccc(O)cc2Oc2cc(O)ccc21)C(N)=O)C(C)C [PPKID7] (H-GLSPYTEWGDDAPVRRLSFFYILLDLYLDAPGVC(Fluorescein(5-NHCOCH2))-NH2)
- Kd [1, 3]: 2300 ± 200 nM
- Kd [1, 4]: 1500 to 3100 nM

Molecule: CC[C@H](C)[C@H](NC(=O)[C@H](Cc1ccc(O)cc1)NC(=O)[C@H](Cc1ccccc1)NC(=O)[C@H](Cc1ccccc1)NC(=O)[C@H](CO)NC(=O)[C@H](CC(C)C)NC(=O)[C@H](CCCNC(=N)N)NC(=O)[C@H](CCCNC(=N)N)NC(=O)[C@@H](NC(=O)[C@@H]1CCCN1C(=O)[C@H](C)NC(=O)[C@H](CC(=O)O)NC(=O)[C@H](CC(=O)O)NC(=O)CNC(=O)[C@@H]1CCCN1C(=O)[C@H](CC(=O)O)NC(=O)[C@@H](NC(=O)[C@H](CCCCN)NC(=O)[C@H](Cc1c[nH]c2ccccc12)NC(=O)[C@H](CO)NC(=O)[C@H](CC(C)C)NC(=O)CN)[C@@H](C)O)C(C)C)C(=O)N[C@@H](CC(C)C)C(=O)N[C@@H](CC(C)C)C(=O)N[C@@H](CC(=O)O)C(=O)N[C@@H](CC(C)C)C(=O)N[C@@H](Cc1ccc(O)cc1)C(=O)N[C@@H](CC(C)C)C(=O)N[C@@H](CC(=O)O)C(=O)N[C@@H](C)C(=O)N1CCC[C@H]1C(=O)NCC(=O)N[C@H](C(=O)N[C@@H](CSCC(=O)Nc1ccc2c(c1)C(=O)OC21c2ccc(O)cc2Oc2cc(O)ccc21)C(N)=O)C(C)C [PPKID8] (H-GLSWKTDPGDDAPVRRLSFFYILLDLYLDAPGVC(Fluorescein(5-NHCOCH2))-NH2)
- Kd [1, 3]: 3100 ± 500 nM
- Kd [1, 4]: 1500 to 3100 nM

Molecule: CC[C@H](C)[C@H](NC(=O)[C@H](Cc1ccc(O)cc1)NC(=O)[C@H](Cc1ccccc1)NC(=O)[C@H](Cc1ccccc1)NC(=O)[C@H](COP(=O)(O)O)NC(=O)[C@H](CC(C)C)NC(=O)[C@H](CCCNC(=N)N)NC(=O)[C@@H](N)CCCNC(=N)N)C(=O)N[C@@H](CC(C)C)C(=O)N[C@@H](CC(C)C)C(=O)N[C@@H](CC(=O)O)C(=O)N[C@@H](CC(C)C)C(=O)N[C@@H](Cc1ccc(O)cc1)C(=O)N[C@@H](CC(C)C)C(=O)N[C@@H](CC(=O)O)C(=O)N[C@@H](C)C(=O)N1CCC[C@H]1C(=O)NCC(=O)N[C@H](C(=O)N[C@@H](CSCC(=O)Nc1ccc2c(c1)C(=O)OC21c2ccc(O)cc2Oc2cc(O)ccc21)C(N)=O)C(C)C [Peptide C, reference compound] (H-RRL[pS]FFYILLDLYLDAPGVC(Fluorescein(5-NHCOCH2))-NH2)
- fold higher HisKIX affinity than KID-B^P [1]: greater than 20 fold
- ΔΔG of CBP KIX binding compared to KID-B of the same phosphorylation state ([1]; listed as peptide C^P): -1.8 kcal/mol
- ΔΔG of CBP KIX binding compared to KID-B of the same phosphorylation state ([1]; listed as peptide C^U): > -1.5 kcal/mol

Molecule: DPAALKRARNTEAARRSRARKLQRMQC [G27, reference compound]
- stability of hsCRE24 complex lower than that of PPBR4^SR-hsCRE24 complex [2]: 3.1 kcal/mol
- Kd [2, 5]: 410 ± 53 nM
- DNA binding at 25° C. [2]: Neither PPBR4 nor G27 showed evidence of DNA binding

Molecule: GPSQPTYPGDDAPVEDLKRFRNTLAARRSRARKAARAAA [PPBR4^SR]
- delta, delta-G, hsCRE24 in preference to hsCEBP24 [2]: -4.4 kcal/mol
- ratio of protein concentrations required to bind one-half of the two DNA [2]: 2600
- delta, delta-G of discrimination against mutations at the 5′ terminus of hsCRE ([2]; 4° C.): -1.7 kcal/mol
- Kd [2, 5]: 1.9 ± 0.2 nM
- DNA binding at 25° C. [2]: Neither PPBR4 nor G27 showed evidence of DNA binding
- specificity ratio Krel, hsCRE24 in preference to hsCEBP24 ([2]; Krel (Kd(hsCRE)/Kd(hsCEPB))): 2600
- formation of the hsCRE24 complex in presence of competitor DNA ([2]; high concentrations of poly (dIdC)-(dIdC) or a scrambled CRE site (NON)): unaffected
- Kd [2, 6]: 1.5 nM

Molecule: GPSQPTYPGDDAPVEDLKRFRNTLAARRSRARKLQRMKQ [PPBR2^SR]
- Kd [2, 6]: 5 nM

Molecule: PPBR10^SR: polyproline helix-basic region peptide, SEQ ID NO: 9 (GPSQPTYPGDDAPVEDLKRFRNTLAAYLSRLRKAARAAA; Pancreatic polypeptide basic region PPBR10)
- DNA binding [2]: No significant DNA binding was detected

Molecule: PPBR11^SR: polyproline helix-basic region peptide, SEQ ID NO: 10 (GPSQPTYPGDDAPVEDLKRFRNTLAARLSRLRKAARAAA; Pancreatic polypeptide basic region PPBR11)
- DNA binding [2]: No significant DNA binding was detected

Molecule: PPBRO^SR: polyproline helix-basic region peptide, SEQ ID NO: 8, lacking DNA-contact residue(s) (GPSQPTYPGDDAPVEDLKRFRNTLAAYLSVVRKLQRMKQ; Pancreatic polypeptide basic region PPBR0)
- DNA binding [2]: No significant DNA binding was detected
